Experimental data reported in the kinase profiling compilation of Christmann-Franck et al. (2016).

What was measured:
Test in all cases: KINOMEscan competition binding
Conditions in all cases: compound 10.0 µM
STK25 (human) = STK25 (human) (UniProt O00506)
RIPK2 (human) = RIPK2 (human) (UniProt O43353)
ULK2 (human) = ULK2 (human) (UniProt Q8IYT8)
RIPK4 (human) = RIPK4 (human) (UniProt P57078)
PRKACB (human) = PRKACB (human) (UniProt P22694)
RPS6KA6 KD2 (human) = RPS6KA6 KD2 (human) (UniProt Q9UK32)
EPHB1 (human) = EPHB1 (human) (UniProt P54762)
SIK1 (human) = SIK1 (human) (UniProt P57059)
PIM1 (human) = PIM1 (human) (UniProt P11309)
FLT4 (human) = FLT4 (human) (UniProt P35916)
BMPR1A (human) = BMPR1A (human) (UniProt P36894)
Chain of BMPR1A (human) (P36894 whole entry, looked up): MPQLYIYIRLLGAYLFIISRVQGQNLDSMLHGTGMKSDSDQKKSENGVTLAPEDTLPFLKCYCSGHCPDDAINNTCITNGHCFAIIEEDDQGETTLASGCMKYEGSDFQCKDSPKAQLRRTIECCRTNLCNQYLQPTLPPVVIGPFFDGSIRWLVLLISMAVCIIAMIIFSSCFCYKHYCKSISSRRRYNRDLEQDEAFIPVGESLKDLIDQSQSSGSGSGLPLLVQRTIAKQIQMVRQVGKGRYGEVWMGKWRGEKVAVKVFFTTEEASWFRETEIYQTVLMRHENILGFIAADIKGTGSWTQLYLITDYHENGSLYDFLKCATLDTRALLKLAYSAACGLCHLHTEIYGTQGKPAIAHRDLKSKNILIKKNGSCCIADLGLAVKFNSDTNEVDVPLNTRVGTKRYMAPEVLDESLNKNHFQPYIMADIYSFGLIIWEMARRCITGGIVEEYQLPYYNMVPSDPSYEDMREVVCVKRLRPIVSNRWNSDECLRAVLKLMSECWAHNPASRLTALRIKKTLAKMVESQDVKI

CAMK2B (human) = CAMK2B (human) (UniProt Q13554)
GAK (human) = GAK (human) (UniProt O14976)
MAP4K2 (human) = MAP4K2 (human) (UniProt Q12851)
Chain of MAP4K2 (human) (Q12851 whole entry, looked up): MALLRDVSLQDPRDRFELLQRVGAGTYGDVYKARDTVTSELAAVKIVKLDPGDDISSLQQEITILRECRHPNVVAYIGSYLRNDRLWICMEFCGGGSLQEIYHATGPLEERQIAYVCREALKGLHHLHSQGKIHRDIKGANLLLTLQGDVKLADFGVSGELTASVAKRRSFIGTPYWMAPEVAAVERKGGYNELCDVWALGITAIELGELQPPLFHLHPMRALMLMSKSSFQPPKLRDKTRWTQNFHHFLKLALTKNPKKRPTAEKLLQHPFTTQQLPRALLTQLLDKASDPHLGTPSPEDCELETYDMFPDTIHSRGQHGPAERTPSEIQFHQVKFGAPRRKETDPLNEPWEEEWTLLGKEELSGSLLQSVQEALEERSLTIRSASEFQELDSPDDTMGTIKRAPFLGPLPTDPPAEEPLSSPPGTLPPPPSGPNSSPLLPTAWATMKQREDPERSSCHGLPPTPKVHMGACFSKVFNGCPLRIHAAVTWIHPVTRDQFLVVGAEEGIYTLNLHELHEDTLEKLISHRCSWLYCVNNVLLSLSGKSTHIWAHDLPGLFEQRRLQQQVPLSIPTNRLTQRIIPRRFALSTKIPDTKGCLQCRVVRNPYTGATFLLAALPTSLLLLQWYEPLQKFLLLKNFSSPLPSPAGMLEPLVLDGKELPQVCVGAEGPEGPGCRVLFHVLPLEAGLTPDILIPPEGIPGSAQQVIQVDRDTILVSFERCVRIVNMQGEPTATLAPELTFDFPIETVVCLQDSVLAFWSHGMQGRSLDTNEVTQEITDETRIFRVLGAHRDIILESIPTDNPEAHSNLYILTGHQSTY

CLK2 (human) = CLK2 (human) (UniProt P49760)
FES (human) = FES (human) (UniProt P07332)
MAPKAPK2 (human) = MAPKAPK2 (human) (UniProt P49137)
STK10 (human) = STK10 (human) (UniProt O94804)
NEK2 (human) = NEK2 (human) (UniProt P51955)
Chain of NEK2 (human) (P51955 whole entry, looked up): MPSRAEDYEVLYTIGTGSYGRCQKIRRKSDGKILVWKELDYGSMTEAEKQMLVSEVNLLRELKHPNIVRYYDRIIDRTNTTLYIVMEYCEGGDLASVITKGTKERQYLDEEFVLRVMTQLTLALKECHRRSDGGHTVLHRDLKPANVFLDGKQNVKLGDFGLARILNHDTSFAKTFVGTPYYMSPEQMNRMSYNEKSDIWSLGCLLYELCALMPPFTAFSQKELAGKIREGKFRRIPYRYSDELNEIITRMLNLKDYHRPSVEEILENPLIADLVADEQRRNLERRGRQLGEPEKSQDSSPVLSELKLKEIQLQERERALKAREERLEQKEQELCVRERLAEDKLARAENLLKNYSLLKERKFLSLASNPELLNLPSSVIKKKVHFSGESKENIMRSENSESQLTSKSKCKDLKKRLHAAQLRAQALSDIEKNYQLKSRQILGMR

TNNI3K (human) = TNNI3K (human) (UniProt Q59H18)
TSSK1B (human) = TSSK1B (human) (UniProt Q9BXA7)
TNIK (human) = TNIK (human) (UniProt Q9UKE5)
TAOK1 (human) = TAOK1 (human) (UniProt Q7L7X3)
CSNK1E (human) = CSNK1E (human) (UniProt P49674)
FGFR4 (human) = FGFR4 (human) (UniProt P22455)
CDC42BPG (human) = CDC42BPG (human) (UniProt Q6DT37)
CHEK1 (human) = CHEK1 (human) (UniProt O14757)
Chain of CHEK1 (human) (O14757 whole entry, looked up): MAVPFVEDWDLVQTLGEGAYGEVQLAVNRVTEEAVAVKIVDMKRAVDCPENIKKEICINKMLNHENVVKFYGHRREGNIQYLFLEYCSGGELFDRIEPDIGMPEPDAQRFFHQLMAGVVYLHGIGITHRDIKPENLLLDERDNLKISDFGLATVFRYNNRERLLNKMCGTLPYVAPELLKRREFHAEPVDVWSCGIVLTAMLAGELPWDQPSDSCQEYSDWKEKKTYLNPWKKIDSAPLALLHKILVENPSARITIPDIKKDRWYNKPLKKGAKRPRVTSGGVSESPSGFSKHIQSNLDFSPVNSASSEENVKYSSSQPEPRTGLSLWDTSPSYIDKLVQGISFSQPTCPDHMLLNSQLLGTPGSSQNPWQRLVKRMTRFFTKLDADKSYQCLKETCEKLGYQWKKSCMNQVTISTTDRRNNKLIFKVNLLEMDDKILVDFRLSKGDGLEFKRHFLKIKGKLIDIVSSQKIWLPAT

NEK1 (human) = NEK1 (human) (UniProt Q96PY6)
Chain of NEK1 (human) (Q96PY6 whole entry, looked up): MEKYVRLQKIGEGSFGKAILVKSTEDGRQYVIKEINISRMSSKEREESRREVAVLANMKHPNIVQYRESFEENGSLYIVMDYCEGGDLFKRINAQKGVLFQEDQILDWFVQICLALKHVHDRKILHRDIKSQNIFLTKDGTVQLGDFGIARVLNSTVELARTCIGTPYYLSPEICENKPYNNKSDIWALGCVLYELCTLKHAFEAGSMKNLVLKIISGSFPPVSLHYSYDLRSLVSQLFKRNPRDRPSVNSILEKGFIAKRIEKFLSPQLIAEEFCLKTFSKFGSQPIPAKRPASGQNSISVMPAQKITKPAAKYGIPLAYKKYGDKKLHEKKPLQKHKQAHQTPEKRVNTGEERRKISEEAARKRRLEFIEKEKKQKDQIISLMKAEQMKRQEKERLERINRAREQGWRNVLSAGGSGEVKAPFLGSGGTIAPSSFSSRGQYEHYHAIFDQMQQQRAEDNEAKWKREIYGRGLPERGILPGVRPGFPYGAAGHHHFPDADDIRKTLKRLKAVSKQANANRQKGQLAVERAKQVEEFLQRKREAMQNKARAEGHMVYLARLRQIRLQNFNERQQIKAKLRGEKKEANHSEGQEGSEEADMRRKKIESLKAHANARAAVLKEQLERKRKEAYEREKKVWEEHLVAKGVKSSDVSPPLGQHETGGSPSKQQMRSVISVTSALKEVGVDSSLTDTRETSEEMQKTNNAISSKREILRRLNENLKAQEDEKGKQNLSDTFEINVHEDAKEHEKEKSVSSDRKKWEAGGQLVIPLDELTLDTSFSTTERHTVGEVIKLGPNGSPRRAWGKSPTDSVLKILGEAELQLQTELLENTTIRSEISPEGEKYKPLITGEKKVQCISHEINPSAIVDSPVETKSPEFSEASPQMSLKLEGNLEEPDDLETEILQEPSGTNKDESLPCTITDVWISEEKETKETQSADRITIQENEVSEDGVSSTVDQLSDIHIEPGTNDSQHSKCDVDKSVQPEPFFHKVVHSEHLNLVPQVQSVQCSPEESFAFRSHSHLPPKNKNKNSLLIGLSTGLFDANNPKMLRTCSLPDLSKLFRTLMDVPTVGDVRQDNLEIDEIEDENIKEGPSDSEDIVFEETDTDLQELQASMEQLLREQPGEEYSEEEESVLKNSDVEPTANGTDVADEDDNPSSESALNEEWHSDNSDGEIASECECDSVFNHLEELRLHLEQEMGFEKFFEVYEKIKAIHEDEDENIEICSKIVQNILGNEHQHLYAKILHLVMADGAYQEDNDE

CLK3 (human) = CLK3 (human) (UniProt P49761)
ADCK3 (human) = ADCK3 (human) (UniProt Q8NI60)
CDK5 (human) = CDK5 (human) (UniProt Q00535)
RPS6KA3 KD1 (human) = RPS6KA3 KD1 (human) (UniProt P51812)
LATS2 (human) = LATS2 (human) (UniProt Q9NRM7)
CDK3 (human) = CDK3 (human) (UniProt Q00526)
ULK3 (human) = ULK3 (human) (UniProt Q6PHR2)
CIT (human) = CIT (human) (UniProt O14578)
CDKL2 (human) = CDKL2 (human) (UniProt Q92772)
Chain of CDKL2 (human) (Q92772 whole entry, looked up): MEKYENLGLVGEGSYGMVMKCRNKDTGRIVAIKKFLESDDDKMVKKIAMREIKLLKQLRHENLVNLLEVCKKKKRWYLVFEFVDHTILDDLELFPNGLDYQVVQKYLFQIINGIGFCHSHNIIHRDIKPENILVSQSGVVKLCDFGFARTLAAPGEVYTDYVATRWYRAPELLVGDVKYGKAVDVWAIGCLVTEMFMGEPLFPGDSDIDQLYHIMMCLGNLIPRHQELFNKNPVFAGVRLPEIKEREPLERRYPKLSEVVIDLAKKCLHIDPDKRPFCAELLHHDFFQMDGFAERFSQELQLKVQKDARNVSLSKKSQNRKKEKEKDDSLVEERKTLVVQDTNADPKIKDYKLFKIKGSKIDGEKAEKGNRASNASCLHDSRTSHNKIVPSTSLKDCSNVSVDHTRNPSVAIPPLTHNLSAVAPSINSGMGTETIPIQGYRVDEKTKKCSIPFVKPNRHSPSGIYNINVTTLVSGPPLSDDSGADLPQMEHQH

NEK6 (human) = NEK6 (human) (UniProt Q9HC98)
Chain of NEK6 (human) (Q9HC98 whole entry, looked up): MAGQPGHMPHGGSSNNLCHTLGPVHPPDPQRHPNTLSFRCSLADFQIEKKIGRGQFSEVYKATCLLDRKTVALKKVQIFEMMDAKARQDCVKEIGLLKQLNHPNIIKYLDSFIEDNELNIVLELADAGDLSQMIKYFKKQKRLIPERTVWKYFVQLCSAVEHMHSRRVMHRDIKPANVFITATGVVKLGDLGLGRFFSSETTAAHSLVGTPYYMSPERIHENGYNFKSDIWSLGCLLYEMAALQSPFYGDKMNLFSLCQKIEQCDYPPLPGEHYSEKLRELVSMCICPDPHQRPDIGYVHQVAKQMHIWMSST

CAMK4 (human) = CAMK4 (human) (UniProt Q16566)
Chain of CAMK4 (human) (Q16566 whole entry, looked up): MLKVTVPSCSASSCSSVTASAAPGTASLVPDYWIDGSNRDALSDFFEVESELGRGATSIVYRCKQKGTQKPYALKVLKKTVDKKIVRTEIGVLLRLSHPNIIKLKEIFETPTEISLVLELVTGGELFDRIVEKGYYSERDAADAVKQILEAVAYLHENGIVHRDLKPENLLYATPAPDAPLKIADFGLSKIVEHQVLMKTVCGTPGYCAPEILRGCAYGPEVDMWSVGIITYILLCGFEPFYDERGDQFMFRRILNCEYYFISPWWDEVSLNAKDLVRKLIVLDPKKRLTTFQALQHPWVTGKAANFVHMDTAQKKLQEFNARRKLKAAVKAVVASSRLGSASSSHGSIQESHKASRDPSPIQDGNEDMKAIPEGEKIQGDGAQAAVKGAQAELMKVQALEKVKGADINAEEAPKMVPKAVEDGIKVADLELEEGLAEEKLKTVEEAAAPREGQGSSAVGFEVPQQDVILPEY

CDC2L2 (human) = CDC2L2 (human) (UniProt Q9UQ88)

COc1cc(N2CCN(C)CC2)ccc1Nc1nc(N)c(C(=O)c2c(Cl)cccc2Cl)s1
kinase still bound, per cent of control (STK25 (human)): 66% | kinase still bound, per cent of control (RIPK2 (human)): 70% | kinase still bound, per cent of control (ULK2 (human)): 72% | kinase still bound, per cent of control (RIPK4 (human)): 96% | kinase still bound, per cent of control (PRKACB (human)): 100% | kinase still bound, per cent of control (RPS6KA6 KD2 (human)): 28% | kinase still bound, per cent of control (EPHB1 (human)): 87% | kinase still bound, per cent of control (SIK1 (human)): 86% | kinase still bound, per cent of control (PIM1 (human)): 100% | kinase still bound, per cent of control (FLT4 (human)): 100% | kinase still bound, per cent of control (BMPR1A (human)): 100% | kinase still bound, per cent of control (CAMK2B (human)): 20% | kinase still bound, per cent of control (GAK (human)): 73% | kinase still bound, per cent of control (MAP4K2 (human)): 77% | kinase still bound, per cent of control (CLK2 (human)): 13% | kinase still bound, per cent of control (FES (human)): 45% | kinase still bound, per cent of control (MAPKAPK2 (human)): 100% | kinase still bound, per cent of control (STK10 (human)): 40% | kinase still bound, per cent of control (NEK2 (human)): 100% | kinase still bound, per cent of control (TNNI3K (human)): 82% | kinase still bound, per cent of control (TSSK1B (human)): 87% | kinase still bound, per cent of control (TNIK (human)): 69% | kinase still bound, per cent of control (TAOK1 (human)): 52% | kinase still bound, per cent of control (CSNK1E (human)): 56% | kinase still bound, per cent of control (FGFR4 (human)): 89% | kinase still bound, per cent of control (CDC42BPG (human)): 100% | kinase still bound, per cent of control (CHEK1 (human)): 79% | kinase still bound, per cent of control (NEK1 (human)): 75% | kinase still bound, per cent of control (CLK3 (human)): 2% | kinase still bound, per cent of control (ADCK3 (human)): 93% | kinase still bound, per cent of control (CDK5 (human)): 88% | kinase still bound, per cent of control (RPS6KA3 KD1 (human)): 66% | kinase still bound, per cent of control (LATS2 (human)): 100% | kinase still bound, per cent of control (CDK3 (human)): 97% | kinase still bound, per cent of control (ULK3 (human)): 100% | kinase still bound, per cent of control (CIT (human)): 94% | kinase still bound, per cent of control (CDKL2 (human)): 93% | kinase still bound, per cent of control (NEK6 (human)): 100% | kinase still bound, per cent of control (CAMK4 (human)): 99%

O=C(NOC[C@H](O)CO)c1ccc(F)c(F)c1Nc1ccc(I)cc1F
kinase still bound, per cent of control (STK25 (human)): 91% | kinase still bound, per cent of control (RIPK2 (human)): 66% | kinase still bound, per cent of control (ULK2 (human)): 97% | kinase still bound, per cent of control (RIPK4 (human)): 100% | kinase still bound, per cent of control (PRKACB (human)): 98% | kinase still bound, per cent of control (RPS6KA6 KD2 (human)): 80% | kinase still bound, per cent of control (EPHB1 (human)): 100% | kinase still bound, per cent of control (SIK1 (human)): 100% | kinase still bound, per cent of control (PIM1 (human)): 100% | kinase still bound, per cent of control (FLT4 (human)): 94% | kinase still bound, per cent of control (BMPR1A (human)): 100% | kinase still bound, per cent of control (CAMK2B (human)): 100% | kinase still bound, per cent of control (GAK (human)): 71% | kinase still bound, per cent of control (MAP4K2 (human)): 100% | kinase still bound, per cent of control (CLK2 (human)): 96% | kinase still bound, per cent of control (FES (human)): 100% | kinase still bound, per cent of control (MAPKAPK2 (human)): 84% | kinase still bound, per cent of control (NEK2 (human)): 70% | kinase still bound, per cent of control (TNNI3K (human)): 51% | kinase still bound, per cent of control (TSSK1B (human)): 100% | kinase still bound, per cent of control (TNIK (human)): 100% | kinase still bound, per cent of control (TAOK1 (human)): 100% | kinase still bound, per cent of control (CSNK1E (human)): 100% | kinase still bound, per cent of control (FGFR4 (human)): 54% | kinase still bound, per cent of control (CDC42BPG (human)): 85% | kinase still bound, per cent of control (CHEK1 (human)): 74% | kinase still bound, per cent of control (CDC2L2 (human)): 100% | kinase still bound, per cent of control (NEK1 (human)): 98% | kinase still bound, per cent of control (CLK3 (human)): 100% | kinase still bound, per cent of control (ADCK3 (human)): 86% | kinase still bound, per cent of control (CDK5 (human)): 100% | kinase still bound, per cent of control (RPS6KA3 KD1 (human)): 100% | kinase still bound, per cent of control (LATS2 (human)): 74% | kinase still bound, per cent of control (CDK3 (human)): 69% | kinase still bound, per cent of control (ULK3 (human)): 89% | kinase still bound, per cent of control (CIT (human)): 100% | kinase still bound, per cent of control (CDKL2 (human)): 87% | kinase still bound, per cent of control (NEK6 (human)): 100% | kinase still bound, per cent of control (CAMK4 (human)): 100%
